Where two headings read alike, the source gives them in different places. Some results are limits rather than exact numbers.

Test [1] addresses T1, human adenosine A1 receptor (Homo sapiens, UniProt P30542).
T1 construct: expressed in transfected cells; host or cells: HEK293 cells infected with BacMam (the same paragraph also labels the preparation CHO-hA1)
T1 sequence (P30542 1-326): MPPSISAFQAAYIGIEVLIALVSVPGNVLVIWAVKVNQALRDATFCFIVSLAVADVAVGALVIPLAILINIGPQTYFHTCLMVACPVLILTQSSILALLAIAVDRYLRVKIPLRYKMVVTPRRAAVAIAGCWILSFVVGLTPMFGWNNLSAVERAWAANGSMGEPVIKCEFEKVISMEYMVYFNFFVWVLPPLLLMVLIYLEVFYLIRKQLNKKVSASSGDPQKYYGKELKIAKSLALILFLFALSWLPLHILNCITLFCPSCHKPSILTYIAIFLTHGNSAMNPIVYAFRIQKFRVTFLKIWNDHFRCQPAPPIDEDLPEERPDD
The experiment in a line: Inhibition binding assay, human adenosine A1 receptor membranes, [3H]DPCPX. The note with it: 1 nM [3H]DPCPX, 25° C., 1 h; IC50 converted to Ki with Cheng-Prusoff; read-out: A1 pKi (converted). Summed up: (§1)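 Membranes from BacMam-infected HEK293 cells (0.2 μg A2A, 1.4 μg A1) incubated 1 h at 25° C with test compound and 1 nM [3H]ZM241385 (A2A; 50 mM Tris-HCl pH 7.4) or [3H]DPCPX (A1; plus 100 mM NaCl, 10 mM MgCl2). Nonspecific: 1 μM CGS15943 or DPCPX. Filtration, scintillation; IC50 converted to Ki via Cheng-Prusoff.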

Test [2] addresses T2, human adenosine A2A receptor (Homo sapiens, UniProt P29274).
T2 construct: expressed in transfected cells; host or cells: HEK293 cells infected with BacMam
Kind of test: Inhibition binding assay, human adenosine A2A receptor membranes, [3H]ZM241385. The note with it: 1 nM [3H]ZM241385, HEK293-hA2A membranes, 25° C., 1 h, IC50 converted to Ki with Cheng-Prusoff. Summed up:
as §1

T2 sequence (P29274 whole entry): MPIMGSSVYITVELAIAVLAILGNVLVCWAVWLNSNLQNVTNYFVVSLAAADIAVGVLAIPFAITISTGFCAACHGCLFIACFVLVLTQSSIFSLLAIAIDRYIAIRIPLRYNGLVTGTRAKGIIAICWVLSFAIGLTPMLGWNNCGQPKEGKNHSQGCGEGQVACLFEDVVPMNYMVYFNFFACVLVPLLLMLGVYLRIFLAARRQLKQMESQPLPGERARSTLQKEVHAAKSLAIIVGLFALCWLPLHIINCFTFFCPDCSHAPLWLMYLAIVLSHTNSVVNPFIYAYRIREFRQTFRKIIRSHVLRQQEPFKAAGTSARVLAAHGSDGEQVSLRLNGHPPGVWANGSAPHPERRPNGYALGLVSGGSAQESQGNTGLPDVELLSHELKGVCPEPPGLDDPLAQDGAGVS

Consider `Cc1cc(-c2c(-c3ccccc3)nc(N)n3c(=O)n(C[C@H]4COCCN4C)nc23)cc(C)n1` [Example 2-77, 5-amino-8-(2,6-dimethyl-4-pyridyl)-2-[[(3S)-4-methylmorpholin-3-yl]methyl]-7-phenyl-[1,2,4]triazolo[4,3-c]pyrimidin-3-one], for which the Ki was 398 nM in test [1] and 3.16 nM in test [2] (read-out: A2A pKi (converted)).

Regarding `Cc1cc(-c2c(-c3ccc(F)cc3)nc(N)n3c(=O)n(Cc4ccc(C#N)cn4)nc23)cc(CO)n1` [Example 1-63, 6-[[5-amino-7-(4-fluorophenyl)-8-[2-(hydroxymethyl)-6-methyl-4-pyridyl]-3-oxo-[1,2,4]triazolo[4,3-c]pyrimidin-2-yl]methyl]pyridine-3-carbonitrile], the Ki in test [1] was greater than 3980 nM; in test [2] (read-out: A2A pKi (converted)) it was 631 nM.

In the case of `Cc1cc(-c2c(-c3ccccc3)nc(N)n3c(=O)n(Cc4ccccc4CN(C)C)nc23)cc(C)n1` [Example 1-24, 5-amino-2-[[2-[(dimethylamino)methyl]phenyl]methyl]-8-(2,6-dimethyl-4-pyridyl)-7-phenyl-[1,2,4]triazolo[4,3-c]pyrimidin-3-one], the Ki in test [1] is 15.8 nM; in test [2] (read-out: A2A pKi (converted)), 0.126 nM.

Regarding `Cc1cc(-c2c(-c3ccccc3)nc(N)n3c(=O)n(CCNC4CCCC(C(=O)NC5CC5)C4)nc23)cc(C)n1` (stereo not shown) [Example 2-108, 3-[2-[5-amino-8-(2,6-dimethyl-4-pyridyl)-3-oxo-7-phenyl-[1,2,4]triazolo[4,3-c]pyrimidin-2-yl]ethylamino]-N-cyclopropyl-cyclohexanecarboxamide], the results for the Ki in test [1] and in test [2] (read-out: A2A pKi (converted)) were greater than 3980 nM and 200 nM, respectively.

On to `Cc1cc(-c2c(-c3ccc(F)cc3)nc(N)n3c(=O)n(CCC(F)(F)F)nc23)cc(Cl)n1` [Example 2-50, 5-amino-8-(2-chloro-6-methyl-4-pyridyl)-7-(4-fluorophenyl)-2-(3,3,3-trifluoropropyl)-[1,2,4]triazolo[4,3-c]pyrimidin-3-one], for which the Ki was 79.4 nM in test [1] and 0.794 nM in test [2] (read-out: A2A pKi (converted)).

As for `Cc1cc(-c2c(-c3ccccc3)nc(N)n3c(=O)n(CCN4C5CCCC4CC5)nc23)cc(C)n1` [Example 2-103, 5-amino-2-[2-(8-azabicyclo[3.2.1]octan-8-yl)ethyl]-8-(2,6-dimethyl-4-pyridyl)-7-phenyl-[1,2,4]triazolo[4,3-c]pyrimidin-3-one], the figures for the Ki in test [1] and in test [2] (A2A pKi) were 1000 nM and 6.31 nM, respectively.

`Cc1cc(-c2c(-c3ccccc3)nc(N)n3c(=O)n(Cc4ccc(Cl)cn4)nc23)cc(CO)n1` [Example 1-55, 5-amino-2-[(5-chloro-2-pyridyl)methyl]-8-[2-(hydroxymethyl)-6-methyl-4-pyridyl]-7-phenyl-[1,2,4]triazolo[4,3-c]pyrimidin-3-one]: the Ki in test [1] is 501 nM; in test [2] (read-out: A2A pKi (converted)), 1.58 nM.

Turning to `COc1ccc(Cn2nc3c(-c4cc(C)nc(C)c4)c(-c4ccccc4)nc(N)n3c2=O)cc1` [Example 1-3, 5-amino-8-(2,6-dimethyl-4-pyridyl)-2-[(4-methoxyphenyl)methyl]-7-phenyl-[1,2,4]triazolo[4,3-c]pyrimidin-3-one], the results for the Ki in test [1] and in test [2] (read-out: A2A pKi (converted)) were 25.1 nM and 6.31 nM, respectively.

With `Cc1cc(-c2c(-c3ccccc3)nc(N)n3c(=O)n(CCO)nc23)cc(C)n1` [Example 2-7, 5-amino-8-(2,6-dimethyl-4-pyridyl)-2-(2-hydroxyethyl)-7-phenyl-[1,2,4]triazolo[4,3-c]pyrimidin-3-one], the figures for the Ki in test [1] and in test [2] (read-out: A2A pKi (converted)) were 1000 nM and 100 nM, respectively.

As for `Cc1cc(-c2c(-c3ccccc3)nc(N)n3c(=O)n(Cc4ccncc4)nc23)cc(C)n1` [Example 1-12, 5-amino-8-(2,6-dimethyl-4-pyridyl)-7-phenyl-2-(4-pyridylmethyl)-[1,2,4]triazolo[4,3-c]pyrimidin-3-one], the Ki was 794 nM in test [1] and 10 nM in test [2] (read-out: A2A pKi (converted)).

On to `COc1cc(-c2c(-c3ccc(F)cc3)nc(N)n3c(=O)n(CCC(F)(F)F)nc23)cc(CO)n1` [Example 2-47, 5-amino-7-(4-fluorophenyl)-8-[2-(hydroxymethyl)-6-methoxy-4-pyridyl]-2-(3,3,3-trifluoropropyl)-[1,2,4]triazolo[4,3-c]pyrimidin-3-one], for which the Ki in test [1] is greater than 3980 nM; in test [2] (read-out: A2A pKi (converted)), 1.58 nM.

Regarding `Cc1cc(-c2c(-c3ccccc3)nc(N)n3c(=O)n(Cc4cccnn4)nc23)cc(CO)n1` [Example 1-56, 5-amino-8-[2-(hydroxymethyl)-6-methyl-4-pyridyl]-7-phenyl-2-(pyridazin-3-ylmethyl)-[1,2,4]triazolo[4,3-c]pyrimidin-3-one], the Ki in test [1] was 200 nM; in test [2] (read-out: A2A pKi (converted)), 3.98 nM.

Regarding `Cc1cc(-c2c(-c3ccccc3)nc(N)n3c(=O)n(CC4CCCOC4)nc23)cc(CO)n1` (single isomer, unassigned) [Example 2-92-iso-2, 5-amino-8-[2-(hydroxymethyl)-6-methyl-4-pyridyl]-7-phenyl-2-(tetrahydropyran-3-ylmethyl)-[1,2,4]triazolo[4,3-c]pyrimidin-3-one], the results for the Ki in test [1] and in test [2] (read-out: A2A pKi (converted)) were 316 nM and 1.26 nM, respectively.

Regarding `Cc1cc(-c2c(-c3ccccc3)nc(N)n3c(=O)n(CC4CCCCO4)nc23)cc(CO)n1` (single isomer, unassigned) [Example 2-91-iso-2, 5-amino-8-[2-(hydroxymethyl)-6-methyl-4-pyridyl]-7-phenyl-2-(tetrahydropyran-2-ylmethyl)-[1,2,4]triazolo[4,3-c]pyrimidin-3-one], the results for the Ki in test [1] and in test [2] (read-out: A2A pKi (converted)) were 251 nM and 1.58 nM, respectively.

Regarding `Cc1cc(-c2c(-c3ccccc3)nc(N)n3c(=O)n(C[C@@H]4CN(C)CCO4)nc23)cc(C)n1` [Example 2-72, 5-amino-8-(2,6-dimethyl-4-pyridyl)-2-[[(2S)-4-methylmorpholin-2-yl]methyl]-7-phenyl-[1,2,4]triazolo[4,3-c]pyrimidin-3-one], the Ki is 631 nM in test [1] and 15.8 nM in test [2] (read-out: A2A pKi (converted)).

For the compound `CCCn1nc2c(-c3cc(C)nc(C)c3)c(-c3ccccc3)nc(N)n2c1=O` [Example 2-20, 5-amino-8-(2,6-dimethyl-4-pyridyl)-7-phenyl-2-propyl-[1,2,4]triazolo[4,3-c]pyrimidin-3-one], the Ki in test [1] is 501 nM; in test [2] (read-out: A2A pKi (converted)) it was 3.98 nM.

For `Cc1cc(-c2c(-c3ccc(F)cc3)nc(N)n3c(=O)n(Cc4ccc(Cl)cn4)nc23)cc(CO)n1` [Example 1-62, 5-amino-2-[(5-chloro-2-pyridyl)methyl]-7-(4-fluorophenyl)-8-[2-(hydroxymethyl)-6-methyl-4-pyridyl]-[1,2,4]triazolo[4,3-c]pyrimidin-3-one], the Ki is 1000 nM in test [1] and 3.98 nM in test [2] (read-out: A2A pKi (converted)).

In the case of `CCC(c1ccc(F)cn1)n1nc2c(-c3cc(C)nc(C)c3)c(-c3ccccc3)nc(N)n2c1=O` (single isomer, unassigned) [Example 1-38-iso-2, 5-amino-8-(2,6-dimethyl-4-pyridyl)-2-[1-(5-fluoro-2-pyridyl)propyl]-7-phenyl-[1,2,4]triazolo[4,3-c]pyrimidin-3-one], the results for the Ki in test [1] and in test [2] (read-out: A2A pKi (converted)) were greater than 2000 nM and 200 nM, respectively.

As to `Cc1cc(-c2c(-c3ccccc3)nc(N)n3c(=O)n(CC4CCCOC4)nc23)cc(CO)n1` (single isomer, unassigned) [Example 2-92-iso-1, 5-amino-8-[2-(hydroxymethyl)-6-methyl-4-pyridyl]-7-phenyl-2-(tetrahydropyran-3-ylmethyl)-[1,2,4]triazolo[4,3-c]pyrimidin-3-one], the Ki in test [1] is 251 nM; in test [2] (read-out: A2A pKi (converted)), 2.51 nM.

In the case of `CC1=NN(c2cccc(NCCn3nc4c(-c5cc(C)nc(C)c5)c(-c5ccccc5)nc(N)n4c3=O)c2)C(=O)C1` [Example 1-98, 5-amino-8-(2,6-dimethyl-4-pyridyl)-2-[2-[3-(3-methyl-5-oxo-4H-pyrazol-1-yl)anilino]ethyl]-7-phenyl-[1,2,4]triazolo[4,3-c]pyrimidin-3-one], the results for the Ki in test [1] and in test [2] (read-out: A2A pKi (converted)) were 1000 nM and 79.4 nM, respectively.

As for `Cc1cc(-c2c(-c3ccc(F)cc3)nc(N)n3c(=O)n(C)nc23)cc(Cl)n1` [Example 2-49, 5-amino-8-(2-chloro-6-methyl-4-pyridyl)-7-(4-fluorophenyl)-2-methyl-[1,2,4]triazolo[4,3-c]pyrimidin-3-one], the Ki in test [1] is 501 nM; in test [2] (read-out: A2A pKi (converted)), 39.8 nM.

On to `Cc1cc(-c2c(-c3ccccc3)nc(N)n3c(=O)n(Cc4ccccc4OCC4CC4)nc23)cc(C)n1` [Example 1-22, 5-amino-2-[[2-(cyclopropylmethoxy)phenyl]methyl]-8-(2,6-dimethyl-4-pyridyl)-7-phenyl-[1,2,4]triazolo[4,3-c]pyrimidin-3-one], for which the Ki in test [1] is 2 nM; in test [2] (read-out: A2A pKi (converted)), 0.158 nM.

As for `Cc1cc(-c2c(-c3ccccc3)nc(N)n3c(=O)n(CCN(C)C4CC4)nc23)cc(C)n1` [Example 2-19, 5-amino-2-[2-[cyclopropyl(methyl)amino]ethyl]-8-(2,6-dimethyl-4-pyridyl)-7-phenyl-[1,2,4]triazolo[4,3-c]pyrimidin-3-one], the Ki in test [1] was 398 nM; in test [2] (read-out: A2A pKi (converted)), 3.98 nM.

(Values after US12528815B2, “5-amino-8-(4-pyridyl)-[1,2,4]triazolo[4,3-c]pyrimidin-3-one compounds for use against cancer” (Nxera Pharma UK Limited, priority 2020, dated 2026).)
